Article PMC4716659 (European journal of medicinal chemistry, 2015)
Values after ≈ are worked out from the molar mass of the structure shown. “Also recorded” adds a separate entry of the source. Values belong to the compound of their own block, whether it stands above or below them.

What was measured:
[1] = test system: methicillin-resistant Staphylococcus aureus (MRSA) ATCC 43300; experiment: MIC, broth microdilution; format: cell-based; conditions: MRSA ATCC 43300
[2] = test system: S. aureus NRS37 (VISA); experiment: MBC, plating onto TSA; format: cell-based, Staphylococcus aureus; conditions: Staphylococcus aureus, NRS37|VISA
[3] = test system: S. aureus NRS107 (MRSA); experiment: MBC, plating onto TSA; format: cell-based, Staphylococcus aureus; conditions: Staphylococcus aureus, MRSA|NRS107
[4] = test system: S. aureus USA 400 (MRSA); experiment: MBC, plating onto TSA; format: cell-based, Staphylococcus aureus; conditions: Staphylococcus aureus, MRSA|USA400
[5] = test system: S. aureus VRS1 (VRSA); experiment: MBC, plating onto TSA; format: cell-based, Staphylococcus aureus; conditions: Staphylococcus aureus, VRSA
[6] = test system: S. aureus NRS1 (VISA); experiment: MIC, broth microdilution; format: cell-based, Staphylococcus aureus; conditions: Staphylococcus aureus, NRS1|VISA
[7] = test system: S. aureus NRS194 (MRSA); experiment: MIC, broth microdilution; format: cell-based, Staphylococcus aureus; conditions: Staphylococcus aureus, MRSA|NRS194
[8] = test system: S. aureus ATCC 43300 (MRSA); experiment: MBC, plating onto TSA; format: cell-based, Staphylococcus aureus; conditions: Staphylococcus aureus, ATCC43300|MRSA
[9] = test system: S. aureus NRS107 (MRSA); experiment: MIC, broth microdilution; format: cell-based, Staphylococcus aureus; conditions: Staphylococcus aureus, MRSA|NRS107
[10] = test system: S. aureus USA 400 (MRSA); experiment: MIC, broth microdilution; format: cell-based, Staphylococcus aureus; conditions: Staphylococcus aureus, MRSA|USA400
[11] = test system: S. aureus VRS4 (VRSA); experiment: MBC, plating onto TSA; format: cell-based, Staphylococcus aureus; conditions: Staphylococcus aureus, VRSA
[12] = test system: S. aureus VRS5 (VRSA); experiment: MIC, broth microdilution; format: cell-based, Staphylococcus aureus; conditions: Staphylococcus aureus, VRSA
[13] = test system: S. aureus VRS4 (VRSA); experiment: MIC, broth microdilution; format: cell-based, Staphylococcus aureus; conditions: Staphylococcus aureus, VRSA
[14] = test system: S. aureus USA300 (MRSA); experiment: MBC, plating onto TSA; format: cell-based, Staphylococcus aureus; conditions: Staphylococcus aureus, MRSA|USA300
[15] = test system: S. aureus USA500 (MRSA); experiment: MBC, plating onto TSA; format: cell-based, Staphylococcus aureus; conditions: Staphylococcus aureus, MRSA|USA500
[16] = test system: S. aureus NRS194 (MRSA); experiment: MBC, plating onto TSA; format: cell-based, Staphylococcus aureus; conditions: Staphylococcus aureus, MRSA|NRS194
[17] = test system: S. aureus NRS119 (MRSA); experiment: MBC, plating onto TSA; format: cell-based, Staphylococcus aureus; conditions: Staphylococcus aureus, MRSA|NRS119
[18] = test system: S. aureus USA500 (MRSA); experiment: MIC, broth microdilution; format: cell-based, Staphylococcus aureus; conditions: Staphylococcus aureus, MRSA|USA500
[19] = test system: S. aureus USA300 (MRSA); experiment: MIC, broth microdilution; format: cell-based, Staphylococcus aureus; conditions: Staphylococcus aureus, MRSA|USA300
[20] = test system: S. aureus NRS19 (VISA); experiment: MBC, plating onto TSA; format: cell-based, Staphylococcus aureus; conditions: Staphylococcus aureus, NRS19|VISA
[21] = test system: S. aureus NRS119 (MRSA); experiment: MIC, broth microdilution; format: cell-based, Staphylococcus aureus; conditions: Staphylococcus aureus, MRSA|NRS119
[22] = test system: S. aureus VRS1 (VRSA); experiment: MIC, broth microdilution; format: cell-based, Staphylococcus aureus; conditions: Staphylococcus aureus, VRSA
[23] = test system: S. aureus VRS5 (VRSA); experiment: MBC, plating onto TSA; format: cell-based, Staphylococcus aureus; conditions: Staphylococcus aureus, VRSA
[24] = test system: S. aureus NRS19 (VISA); experiment: MIC, broth microdilution; format: cell-based, Staphylococcus aureus; conditions: Staphylococcus aureus, NRS19|VISA
[25] = test system: S. aureus NRS37 (VISA); experiment: MIC, broth microdilution; format: cell-based, Staphylococcus aureus; conditions: Staphylococcus aureus, NRS37|VISA
[26] = test system: S. aureus NRS1 (VISA); experiment: MBC, plating onto TSA; format: cell-based, Staphylococcus aureus; conditions: Staphylococcus aureus, NRS1|VISA
[27] = test system: human embryonic kidney (HEK293) cell line; experiment: In vitro cytotoxicity, MTS assay; conditions: 40 μg/mL
[28] = Staphylococcus aureus, ATCC43300|MRSA

Compound: CCCCc1ccc(-c2nc(C)c(/C(N)=N/O)s2)cc1 [compound 15, (Z)-2-(4-Butylphenyl)-N′-hydroxy-4-methylthiazole-5-carboximidamide]
MIC [1]: >37.0 µg/mL
MIC [1, 28]: > 35.1 µg/mL

Compound: [H]/N=C(\N)NN=C(C)c1sc(-c2ccc(N)cc2)nc1C [compound 19, (E)-2-(1-(4-Methyl-2-(4-aminophenyl)thiazol-5-yl)ethylidene) hydrazinecarboximidamide]
MIC [1]: >36.9 µg/mL

Compound: CC(=O)c1sc(-c2ccc(-c3cccc4ccccc34)cc2)nc1C [compound 24, 1-(4-Methyl-2-(4-(naphthalen-1-yl)phenyl)thiazol-5-yl)ethanone]
MIC [1, 28]: > 43.9 µg/mL

Compound: CCCCc1ccc(-c2nc(C)c(C(=O)NCN(C)C)s2)cc1 [compound 13, 2-(4-Butylphenyl)-N-[(dimethylamino)methyl]-4-methylthiazole-5-carboxamide]
MIC [1, 28]: 44.2 µg/mL (≈ 133 µM)

Second part, led by results:

MIC [1, 28]: > 46.2 µg/mL
Compound: CC(=O)c1sc(-c2ccc(-c3ccc(C(F)(F)F)cc3)cc2)nc1C [21c, 1-(4-Methyl-2-(4′-(trifluoromethyl)-[1,1′-biphenyl]-4-yl)thiazol-5-yl)ethanone]

MIC [6]: 6.3 µg/mL (≈ 16.1 µM)
MIC [7]: 6.3 µg/mL (≈ 16.1 µM)
MIC [9]: 6.3 µg/mL (≈ 16.1 µM)
MIC [10]: 6.3 µg/mL (≈ 16.1 µM)
MIC [12]: 6.3 µg/mL (≈ 16.1 µM)
MIC [13]: 1.6 µg/mL (≈ 4.09 µM)
MIC [18]: 6.3 µg/mL (≈ 16.1 µM)
MIC [19]: 6.3 µg/mL (≈ 16.1 µM)
MIC [1, 28]: 6.3 µg/mL (≈ 16.1 µM)
MIC [21]: 6.3 µg/mL (≈ 16.1 µM)
MIC [22]: 3.1 µg/mL (≈ 7.92 µM)
MIC [24]: 12.5 µg/mL (≈ 31.9 µM)
MIC [25]: 3.1 µg/mL (≈ 7.92 µM)
Compound: [H]/N=C(\N)NN=C(C)c1sc(-c2ccc(-c3ccc(C(C)=O)cc3)cc2)nc1C [22d, (E)-2-(1-(2-(4′-Acetyl-[1,1′-biphenyl]-4-yl)-4-methylthiazol-5-yl)ethylidene)hydrazinecarboximidamide]
MBC [2]: 6.3 µg/mL (≈ 16.1 µM)
MBC [3]: 12.5 µg/mL (≈ 31.9 µM)
MBC [4]: 6.3 µg/mL (≈ 16.1 µM)
MBC [5]: 3.1 µg/mL (≈ 7.92 µM)
MBC [8]: 6.3 µg/mL (≈ 16.1 µM)
MBC [11]: 3.1 µg/mL (≈ 7.92 µM)
MBC [14]: 6.3 µg/mL (≈ 16.1 µM)
MBC [15]: 6.3 µg/mL (≈ 16.1 µM)
MBC [16]: 6.3 µg/mL (≈ 16.1 µM)
MBC [17]: 12.5 µg/mL (≈ 31.9 µM)
MBC [20]: 12.5 µg/mL (≈ 31.9 µM)
MBC [23]: 6.3 µg/mL (≈ 16.1 µM)
MBC [26]: 6.3 µg/mL (≈ 16.1 µM)
toxicity to mammalian cells (MTS assay) [27]: not toxic; also recorded: improved toxicity profile

MIC [1]: >46.7 µg/mL
MIC [1, 28]: > 36.9 µg/mL
Compound: [H]/N=C(\N)NN=C(C)c1sc(-c2ccc(-c3ccc(O)cc3)cc2)nc1C [22a, (E)-2-(1-(2-(4′-Hydroxy-[1,1′-biphenyl]-4-yl)-4-methylthiazol-5-yl)ethylidene)hydrazinecarboximidamide]

MIC [1, 28]: > 39.8 µg/mL
Compound: CC(=O)c1sc(-c2ccc(-c3ccc(F)cc3)cc2)nc1C [21b, 1-(2-(4′-Fluoro-[1,1′-biphenyl]-4-yl)-4-methylthiazol-5-yl)ethanone]
